Results: PubChem BioAssay AID2060896 (Molecular Pharmacology Branch, DTP, NCI, 2025)

System: 941728-121-R-J1-PDC complex spheroid viability
Experiment: Anticancer human tumor 941728-121-R-J1-PDC patient-derived lung adenocarcinoma cell line growth inhibition [RAS]
Conditions: for IC50: curve of first compound; for viability, T/C: stronger effect = lower value
How it was run: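 Tumour cells grown as complex spheroids with HUVEC endothelial cells and mesenchymal stem cells, treated with RAS pathway inhibitor combinations. Each agent spans half-log steps from near clinical Cmax, or 10 microM where Cmax is unknown.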

[1] = second compound 0.000949 µM, first compound 0.00316 µM
[2] = second compound 0.000949 µM, first compound 0.01 µM
[3] = second compound 0.000949 µM, first compound 0.0316 µM
[4] = second compound 0.000949 µM, first compound 0.1 µM
[5] = second compound 0.000949 µM, first compound 0.316 µM
[6] = second compound 0.000949 µM, first compound 1 µM
[7] = second compound 0.003 µM, first compound 0.00316 µM
[8] = second compound 0.003 µM, first compound 0.01 µM
[9] = second compound 0.003 µM, first compound 0.0316 µM
[10] = second compound 0.003 µM, first compound 0.1 µM
[11] = second compound 0.003 µM, first compound 0.316 µM
[12] = second compound 0.003 µM, first compound 1 µM
[13] = second compound 0.00949 µM, first compound 0.00316 µM
[14] = second compound 0.00949 µM, first compound 0.01 µM
[15] = second compound 0.00949 µM, first compound 0.0316 µM
[16] = second compound 0.00949 µM, first compound 0.1 µM
[17] = second compound 0.00949 µM, first compound 0.316 µM
[18] = second compound 0.00949 µM, first compound 1 µM
[19] = second compound 0.03 µM, first compound 0.00316 µM
[20] = second compound 0.03 µM, first compound 0.01 µM
[21] = second compound 0.03 µM, first compound 0.0316 µM
[22] = second compound 0.03 µM, first compound 0.1 µM
[23] = second compound 0.03 µM, first compound 0.316 µM
[24] = second compound 0.03 µM, first compound 1 µM
[25] = second compound 0.0949 µM, first compound 0.00316 µM
[26] = second compound 0.0949 µM, first compound 0.01 µM
[27] = second compound 0.0949 µM, first compound 0.0316 µM
[28] = second compound 0.0949 µM, first compound 0.1 µM
[29] = second compound 0.0949 µM, first compound 0.316 µM
[30] = second compound 0.0949 µM, first compound 1 µM
[31] = second compound 0.3 µM, first compound 0.00316 µM
[32] = second compound 0.3 µM, first compound 0.01 µM
[33] = second compound 0.3 µM, first compound 0.0316 µM
[34] = second compound 0.3 µM, first compound 0.1 µM
[35] = second compound 0.3 µM, first compound 0.316 µM
[36] = second compound 0.3 µM, first compound 1 µM
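Also: spheroids exposed to compounds for 7 days before readout.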
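For viability, T/C in this document: 100% = DMSO vehicle control viability.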

SMILES: C=CC(=O)Nc1cc(Nc2nccc(-c3cn(C)c4ccccc34)n2)c(OC)cc1N(C)CCN(C)C + CCn1c(-c2cccnc2C(C)OC)c2c3cc(ccc31)N1CCOC(CC(NC(=O)C(C(C)C)N(C)C(=O)C3(F)CCN(C(=O)C#CC(C)(C)N(C)C)CC3)C(=O)N3CCCC(N3)C(=O)OCC(C)(C)C2)C1
- IC50 (second compound 0.000949 µM): < 3.16 nM
- IC50 (second compound 0.003 µM): 382 nM
- IC50 (second compound 0.00949 µM): < 3.16 nM
- IC50 (second compound 0.03 µM): < 3.16 nM
- IC50 (second compound 0.0949 µM): < 3.16 nM
- IC50 (second compound 0.3 µM): < 3.16 nM
- viability, T/C [1]: 24.4%
- viability, T/C [2]: 22.9%
- viability, T/C [3]: 16.2%
- viability, T/C [4]: 20.1%
- viability, T/C [5]: 19.2%
- viability, T/C [6]: 12.8%
- viability, T/C [7]: 89.7%
- viability, T/C [8]: 91.4%
- viability, T/C [9]: 69.4%
- viability, T/C [10]: 69.9%
- viability, T/C [11]: 53.1%
- viability, T/C [12]: 35.4%
- viability, T/C [13]: 22.7%
- viability, T/C [14]: 18.3%
- viability, T/C [15]: 20.5%
- viability, T/C [16]: 19.2%
- viability, T/C [17]: 16.1%
- viability, T/C [18]: 12.8%
- viability, T/C [19]: 25.8%
- viability, T/C [20]: 20.8%
- viability, T/C [21]: 16.8%
- viability, T/C [22]: 16.9%
- viability, T/C [23]: 14.2%
- viability, T/C [24]: 15.5%
- viability, T/C [25]: 22%
- viability, T/C [26]: 22.4%
- viability, T/C [27]: 20.7%
- viability, T/C [28]: 16.6%
- viability, T/C [29]: 15.9%
- viability, T/C [30]: 17.2%
- viability, T/C [31]: 22.5%
- viability, T/C [32]: 21.6%
- viability, T/C [33]: 21.3%
- viability, T/C [34]: 20.1%
- viability, T/C [35]: 21.7%
- viability, T/C [36]: 21.4%

SMILES: CC(Nc1ccc2c(c1)OCCn1cc(N3C(=O)OCC3C(F)F)nc1-2)C(N)=O (stereo unspecified) + CCn1c(-c2cccnc2C(C)OC)c2c3cc(ccc31)N1CCOC(CC(NC(=O)C(C(C)C)N(C)C(=O)C3(F)CCN(C(=O)C#CC(C)(C)N(C)C)CC3)C(=O)N3CCCC(N3)C(=O)OCC(C)(C)C2)C1
- IC50 (second compound 0.000949 µM): < 31.6 nM
- IC50 (second compound 0.003 µM): < 31.6 nM
- IC50 (second compound 0.00949 µM): < 31.6 nM
- IC50 (second compound 0.03 µM): < 31.6 nM
- IC50 (second compound 0.0949 µM): < 31.6 nM
- IC50 (second compound 0.3 µM): < 31.6 nM
- viability, T/C [3]: 18.5%
- viability, T/C [4]: 20.6%
- viability, T/C [5]: 12.5%
- viability, T/C [6]: 15.8%
- viability, T/C (second compound 0.000949 µM, first compound 3.16 µM): 13.3%
- viability, T/C (second compound 0.000949 µM, first compound 10 µM): 9.24%
- viability, T/C [9]: 20.5%
- viability, T/C [10]: 17.2%
- viability, T/C [11]: 14.4%
- viability, T/C [12]: 14.3%
- viability, T/C (second compound 0.003 µM, first compound 3.16 µM): 13.8%
- viability, T/C (second compound 0.003 µM, first compound 10 µM): 9.35%
- viability, T/C [15]: 18.9%
- viability, T/C [16]: 15.3%
- viability, T/C [17]: 15.1%
- viability, T/C [18]: 14.7%
- viability, T/C (second compound 0.00949 µM, first compound 3.16 µM): 11.5%
- viability, T/C (second compound 0.00949 µM, first compound 10 µM): 11.7%
- viability, T/C [21]: 19.8%
- viability, T/C [22]: 18%
- viability, T/C [23]: 14.6%
- viability, T/C [24]: 15.7%
- viability, T/C (second compound 0.03 µM, first compound 3.16 µM): 9.34%
- viability, T/C (second compound 0.03 µM, first compound 10 µM): 12.8%
- viability, T/C [27]: 18.8%
- viability, T/C [28]: 18.4%
- viability, T/C [29]: 15.8%
- viability, T/C [30]: 11.8%
- viability, T/C (second compound 0.0949 µM, first compound 3.16 µM): 12.1%
- viability, T/C (second compound 0.0949 µM, first compound 10 µM): 13.7%
- viability, T/C [33]: 19.9%
- viability, T/C [34]: 18.8%
- viability, T/C [35]: 14.6%
- viability, T/C [36]: 14.7%
- viability, T/C (second compound 0.3 µM, first compound 3.16 µM): 13.5%
- viability, T/C (second compound 0.3 µM, first compound 10 µM): 12.3%

SMILES: O=C(c1ccc(F)c(F)c1Nc1ccc(I)cc1F)N1CC(O)([C@@H]2CCCCN2)C1 + CCn1c(-c2cccnc2C(C)OC)c2c3cc(ccc31)N1CCOC(CC(NC(=O)C(C(C)C)N(C)C(=O)C3(F)CCN(C(=O)C#CC(C)(C)N(C)C)CC3)C(=O)N3CCCC(N3)C(=O)OCC(C)(C)C2)C1
- IC50 (second compound 0.000949 µM): < 3.16 nM
- IC50 (second compound 0.003 µM): 21.9 nM
- IC50 (second compound 0.00949 µM): < 3.16 nM
- IC50 (second compound 0.03 µM): < 3.16 nM
- IC50 (second compound 0.0949 µM): < 3.16 nM
- IC50 (second compound 0.3 µM): < 3.16 nM
- viability, T/C [1]: 20.5%
- viability, T/C [2]: 18.8%
- viability, T/C [3]: 13.7%
- viability, T/C [4]: 17.1%
- viability, T/C [5]: 12.5%
- viability, T/C [6]: 7.9%
- viability, T/C [7]: 94.2%
- viability, T/C [8]: 64.1%
- viability, T/C [9]: 37.4%
- viability, T/C [10]: 38%
- viability, T/C [11]: 35.4%
- viability, T/C [12]: 18.4%
- viability, T/C [13]: 18.6%
- viability, T/C [14]: 15.4%
- viability, T/C [15]: 17%
- viability, T/C [16]: 14.6%
- viability, T/C [17]: 11.6%
- viability, T/C [18]: 9.5%
- viability, T/C [19]: 18.3%
- viability, T/C [20]: 17.9%
- viability, T/C [21]: 18.8%
- viability, T/C [22]: 12.8%
- viability, T/C [23]: 12.4%
- viability, T/C [24]: 12.2%
- viability, T/C [25]: 19.4%
- viability, T/C [26]: 17.1%
- viability, T/C [27]: 15.8%
- viability, T/C [28]: 13.6%
- viability, T/C [29]: 12.9%
- viability, T/C [30]: 15.1%
- viability, T/C [31]: 17.9%
- viability, T/C [32]: 20%
- viability, T/C [33]: 15.8%
- viability, T/C [34]: 15.7%
- viability, T/C [35]: 13.7%
- viability, T/C [36]: 14%
